In US8148368B2, “7-nitro-2-(3-nitro phenyl)-4H-3,1-benzoxazin-4-one or derivatives thereof for treating or preventing antiviral infections” (priority 2010, dated 2012):

Legend:
[1] = test system: HCV sub-genomic replicon in FCA-4 cells; assay: Antiviral effect in FCA-4 HCV 1b sub-genomic replicon cells, RT-PCR of HCV RNA; format: cell-based, hepatitis C virus
Description: FCA-4 sub genomic replicon was bicistronic construct composed of the HCV IRES (nucleotides 1 to 377 of the 5′NCR); the neomycin phosphotransferase (neo) gene; the encephalomyocarditis IRES, which mediates the translation of HCV nonstructural proteins NS3 through NS5; and the 3′NCR as shown in FIG. 2. […] FCA-4 sub-genomic replicon consists of single adaptive mutation and a deletion of a serine residue at position 1176 (Guo et al, 2001).
The bicistronic RNA molecule contains the HCV IRES and a few core-coding sequences, which are followed by neomycin phosphotransferase gene (Neor). These sequences are followed by the encephalomyocarditis virus IRES placed in front of HCV sequences encoding nonstructural protein NS3 to NS5B, terminating at the HCV 3NCR.
To determine the antiviral effect against HCV, FCA 4 cells were seeded in six well plates. After 24 h, media containing 20 μM of test compound was added to the plates. Cells were incubated at 37° C. in CO2 incubator for additional 48 h. At the end of the incubation, cells were harvested, RNA was extracted and cDNA were generated by oligo dT priming cDNA was amplified by PCR using primers specific to the 5′ UTR and NS5B gene of HCV. Amplification of GAPDH mRNA served as an internal control.

[2] = test system: HCV 3a genotype in MDBK cells; assay: Combination with interferon-α against HCV 3a genotype in MDBK cells, real time quantitative RT-PCR; format: cell-based, hepatitis C virus; conditions: interferon-α 5 IU/well, 6 hrs pre-incubation, HCV 3a 2×10^4 copies per well, 18 hrs
Experimental: Surprising synergism was recorded when Compound 1 was combined with Interferon alpha. […] MDBK cells were incubated for 6 hrs with compounds and interferon alone, or combination of compound and interferon in a 96-well plat. After 6 hrs cells were infected with 2×10^4 copies of HCV 3a genotype per well and incubated for additional 18 hrs. At the end of incubation period, total RNA was extracted by Gentra kit, and the levels of HCV RNA remaining were determined, by real time Quantitative RT-PCR assay and are shown as percentage of HCV RNA survival in cells. Results are represented as the average and standard error for three independent experiments.

HCV = conditions: ribavirin alone; cited from earlier work

SMILES | GAPDH mRNA expression (internal control) ([1]; 20 μM, 48 h, FCA 4 cells) | HCV RNA expression ([1]; 20 μM, 48 h, FCA 4 cells, RT-PCR (5′ UTR and NS5B primers)) | antiviral suppression in relation to cytotoxicity ([1]; FCA4 cells) | concentration showing maximum reduction of HCV expression ([1]; dose dependent, FCA4 sub-genomic replicon, 48 h, FIG. 3) [µM] | effect of combination with interferon-α on HCV RNA [2] | patients with serum amino transferase levels reduced to normal (HCV) [%]
O=c1oc(-c2cccc([N+](=O)[O-])c2)nc2cc([N+](=O)[O-])ccc12 [Compound 1, 7-nitro-2-(3-nitrophenyl)-4H-3,1-benzoxazin-4-one] | remains unaffected | inhibited HCV RNA expression significantly | independent of cytotoxicity | 10 | synergistic effect | –
NC(=O)c1ncn([C@@H]2O[C@H](CO)[C@@H](O)[C@H]2O)n1 [Ribavirin, 1-β-D-ribofuranosyl-1-1,2,4-triazole-3-carboxamide] | – | – | – | – | – | 40
